One molecule from article PMC4381587, “A novel PI3K inhibitor PIK-C98 displays potent preclinical activity against multiple myeloma” (Oncotarget, 2014) can be followed below.

Each structure is given as a SMILES string.

Assay [1] has as its system PI3K/AKT/mTOR pathway in OPM2 and JJN3 cells. The assay is described as follows: Immunoblotting of PI3K/AKT/mTOR pathway in OPM2 and JJN3 cells. The format is cell-based, human. The following applies: OPM2 and JJN3, increasing concentration, 24 hr. The procedure: Subsequently, the inhibition of C98 on the PI3K signaling pathway was evaluated in MM cell lines OPM2 and JJN3. […] Because all these kinases are downstream signaling proteins in the PI3K pathway while C98 had no effects on AKT and mTOR in the cell free assay, the inhibition of C98 on these kinases was probably due to its suppression on PI3K.
(§1) (B) LP1 and JJN3 cells were starved overnight, then treated with C98 or S14161 for 2 hr, followed by IGF-1 (100 ng/mL) for 15 min. Cells were then prepared for the analysis of the expression of p-AKT, t-AKT, p-IGF-1R, and IGF-1R by immunoblotting. (C) OPM2 and JJN3 cells were treated with increasing concentrations of C98 for 24 hr before being applied to immunoblotting against p-ERK, t-ERK, p-P38, t-P38, p-Src, t-Src, p-STAT3, or t-STAT3. GAPDH and β-actin were used as loading controls.
(§2) The immunoblotting assays were performed as described previously. IRDye 680 goat anti-mouse and IRDye 800CW goat anti-rabbit antibodies were from Odyssey (San Ramon, CA, USA).
Background: In western blotting, separated proteins are transferred to a membrane and probed.

A further assay deals with T1, mTOR.
T1 construct: purchased Reaction Biology Corp., Malvern, PA, USA
Briefly: Kinase activity in cell-free assay, mTOR. It counts as biochemical. The following applies: enzymatic system, even at a concentration of 300 μM. The procedure:
(§3) To confirm this hypothesis, the inhibitory potency of C98 on PI3K enzymes was measured in a cell-free system with individual recombinant human PI3K isoforms. […] To further evaluate its specificity on PI3K, the effects of C98 on other associated kinases AKT, PDK1, and mTOR were also measured in the enzymatic systems. […] Therefore, C98 preferred to inhibit PI3K activity.
(§4) Kinase activity in the presence of C98 was performed by using the HotSpot technology (Reaction Biology Corp., Malvern, PA, USA) as described previously.

For assay [2], the system named is AKT phosphorylation in OPM2 cells. Briefly: Immunoblotting of AKT phosphorylation in starved, IGF-1-stimulated OPM2 cells. It counts as cell-based, human. Particulars: OPM2 starved overnight, C98 25-100 μM, 0.5-2 hr, then IGF-1 100 ng/mL 15 min. The procedure:
as §3
(§5) Figure 1 C98 inhibits PI3K activity (A) Chemical structure of C98. (B) OPM2 cells were starved overnight and then treated with six compounds identified from the virtual screening for 2 hr, followed by IGF-1 stimulation for 15 min. Cell lysates were prepared for AKT expression and phosphorylation analyses. The known PI3K inhibitor S14161 was used as a positive control. (C) OPM2 cells were starved overnight, then treated with C98 at indicated concentration (25, 50 and 100 μM) or S14161 (100 μM) for 2 hr, followed by IGF-1 (100 ng/mL) stimulation for 15 min Cell lysates were prepared for AKT expression and phosphorylation analyses. […] Activity of each kinase was determined with HotSpot technology as described in the Methods section “Kinase activity in cell-free assay”. […]

Assay [3] has as its system AKT phosphorylation in LP1 and JJN3 cells. Briefly: Immunoblotting of AKT phosphorylation in starved, IGF-1-stimulated LP1 and JJN3 cells. The format is cell-based. The following applies: 2 hr, then IGF-1 100 ng/mL 15 min. How it is done: as §1
(§6) To find out whether C98 also interfered with other signaling pathways, we first checked the receptor tyrosine kinase IGF-1R, which mediates PI3K activation in MM cells in the presence of IGF-1. Starved MM cells LP1 and JJN3 were incubated with C98 followed by IGF-1 stimulation. […] Moreover, we also measured the expression of PTEN, a negative regulator of PI3K signaling, in MM cells after C98 treatment.
as §2

A further assay deals with AKT. The assay is described as follows: Kinase activity in cell-free assay, AKT. The format is biochemical. Particulars: enzymatic system; read-out: IC50 on AKT activation. The procedure:
as §3, §4

A further assay has as its system JJN3 xenograft. Briefly: JJN3 myeloma xenograft in nude mice. It counts as in vivo.
The target in assay [4] is recombinant human PI3K isoform γ (Homo sapiens, UniProt P48736). Briefly: Kinase activity in cell-free assay (HotSpot), PI3Kγ. The following applies: read-out: IC50 against PI3K γ isoform. The format is biochemical. How it is done: as §3, §5
Assay [5] deals with recombinant human PI3K isoform δ (Homo sapiens, UniProt O00329). The assay is described as follows: Kinase activity in cell-free assay (HotSpot), PI3Kδ. The format is biochemical. The following applies: read-out: IC50 against PI3K δ isoform. The procedure: as §3, §5
Another assay has as its system IGF-1R. The assay is described as follows: Immunoblotting of IGF-1R phosphorylation in starved, IGF-1-stimulated LP1 and JJN3 cells. It counts as cell-based. Particulars: 100 μM, 2 hr, then IGF-1. How it is done: as §1, §6, §2
Setting [6] is: JJN3 xenograft, 40 mg/kg oral daily, 16 days.
Where [7] appears, read: JJN3 xenograft, 80 mg/kg oral daily, 16 days.

Sequence of recombinant human PI3K isoform γ (P48736 whole entry, canonical isoform): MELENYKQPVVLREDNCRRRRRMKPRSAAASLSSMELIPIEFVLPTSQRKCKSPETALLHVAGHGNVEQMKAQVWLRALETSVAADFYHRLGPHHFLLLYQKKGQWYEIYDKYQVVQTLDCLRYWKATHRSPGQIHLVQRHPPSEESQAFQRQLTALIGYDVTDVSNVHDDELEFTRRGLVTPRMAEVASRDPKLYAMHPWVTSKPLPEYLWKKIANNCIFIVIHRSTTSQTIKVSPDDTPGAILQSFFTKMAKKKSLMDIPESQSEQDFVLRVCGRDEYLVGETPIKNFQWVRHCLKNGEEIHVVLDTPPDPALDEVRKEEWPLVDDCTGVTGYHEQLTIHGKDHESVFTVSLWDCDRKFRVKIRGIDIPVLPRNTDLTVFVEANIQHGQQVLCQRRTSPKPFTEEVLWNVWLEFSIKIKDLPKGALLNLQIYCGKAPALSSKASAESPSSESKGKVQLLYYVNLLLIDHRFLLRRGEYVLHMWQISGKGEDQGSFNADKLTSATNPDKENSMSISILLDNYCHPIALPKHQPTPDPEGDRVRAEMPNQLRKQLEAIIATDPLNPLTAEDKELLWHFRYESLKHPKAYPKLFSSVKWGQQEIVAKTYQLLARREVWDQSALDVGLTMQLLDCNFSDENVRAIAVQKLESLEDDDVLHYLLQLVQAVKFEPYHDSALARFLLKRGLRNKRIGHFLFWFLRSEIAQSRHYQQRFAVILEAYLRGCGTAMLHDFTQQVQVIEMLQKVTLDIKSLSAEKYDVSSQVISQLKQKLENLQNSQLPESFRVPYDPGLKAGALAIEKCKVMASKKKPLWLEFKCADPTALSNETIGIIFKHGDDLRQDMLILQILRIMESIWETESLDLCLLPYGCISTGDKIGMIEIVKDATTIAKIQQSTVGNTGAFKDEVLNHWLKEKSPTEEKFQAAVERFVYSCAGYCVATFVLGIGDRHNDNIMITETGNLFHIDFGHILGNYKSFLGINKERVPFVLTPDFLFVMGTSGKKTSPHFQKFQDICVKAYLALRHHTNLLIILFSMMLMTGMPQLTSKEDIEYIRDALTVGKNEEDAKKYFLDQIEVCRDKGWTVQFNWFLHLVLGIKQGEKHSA
Sequence of recombinant human PI3K isoform δ (O00329 whole entry, canonical isoform): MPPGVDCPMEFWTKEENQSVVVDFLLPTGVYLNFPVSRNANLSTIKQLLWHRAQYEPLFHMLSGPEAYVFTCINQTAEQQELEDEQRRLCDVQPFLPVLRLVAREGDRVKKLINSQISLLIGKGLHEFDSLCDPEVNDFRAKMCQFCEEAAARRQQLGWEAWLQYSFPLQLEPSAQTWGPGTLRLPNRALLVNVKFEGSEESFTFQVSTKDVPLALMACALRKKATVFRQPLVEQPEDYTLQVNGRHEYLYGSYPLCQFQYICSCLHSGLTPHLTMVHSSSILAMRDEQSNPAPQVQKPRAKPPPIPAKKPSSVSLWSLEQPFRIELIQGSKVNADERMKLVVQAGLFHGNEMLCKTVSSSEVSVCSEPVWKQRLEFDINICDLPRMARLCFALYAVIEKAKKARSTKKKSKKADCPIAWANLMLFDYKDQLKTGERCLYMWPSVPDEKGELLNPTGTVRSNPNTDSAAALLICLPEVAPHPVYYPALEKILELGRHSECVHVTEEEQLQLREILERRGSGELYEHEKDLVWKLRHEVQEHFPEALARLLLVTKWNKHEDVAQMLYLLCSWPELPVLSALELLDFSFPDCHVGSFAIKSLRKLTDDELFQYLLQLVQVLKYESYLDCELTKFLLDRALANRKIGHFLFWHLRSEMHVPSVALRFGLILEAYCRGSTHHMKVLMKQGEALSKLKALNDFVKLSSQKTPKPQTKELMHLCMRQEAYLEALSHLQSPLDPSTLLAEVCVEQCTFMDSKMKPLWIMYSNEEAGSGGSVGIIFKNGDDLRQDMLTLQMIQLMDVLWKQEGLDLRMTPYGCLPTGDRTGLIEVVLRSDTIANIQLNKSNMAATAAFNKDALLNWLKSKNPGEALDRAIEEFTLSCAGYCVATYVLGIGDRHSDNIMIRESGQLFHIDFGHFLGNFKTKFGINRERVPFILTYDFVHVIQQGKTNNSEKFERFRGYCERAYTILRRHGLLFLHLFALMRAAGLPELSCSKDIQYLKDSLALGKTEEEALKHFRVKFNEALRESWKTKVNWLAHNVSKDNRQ
Sequence of recombinant human PI3K isoform δ (P27986 whole entry partner, canonical isoform): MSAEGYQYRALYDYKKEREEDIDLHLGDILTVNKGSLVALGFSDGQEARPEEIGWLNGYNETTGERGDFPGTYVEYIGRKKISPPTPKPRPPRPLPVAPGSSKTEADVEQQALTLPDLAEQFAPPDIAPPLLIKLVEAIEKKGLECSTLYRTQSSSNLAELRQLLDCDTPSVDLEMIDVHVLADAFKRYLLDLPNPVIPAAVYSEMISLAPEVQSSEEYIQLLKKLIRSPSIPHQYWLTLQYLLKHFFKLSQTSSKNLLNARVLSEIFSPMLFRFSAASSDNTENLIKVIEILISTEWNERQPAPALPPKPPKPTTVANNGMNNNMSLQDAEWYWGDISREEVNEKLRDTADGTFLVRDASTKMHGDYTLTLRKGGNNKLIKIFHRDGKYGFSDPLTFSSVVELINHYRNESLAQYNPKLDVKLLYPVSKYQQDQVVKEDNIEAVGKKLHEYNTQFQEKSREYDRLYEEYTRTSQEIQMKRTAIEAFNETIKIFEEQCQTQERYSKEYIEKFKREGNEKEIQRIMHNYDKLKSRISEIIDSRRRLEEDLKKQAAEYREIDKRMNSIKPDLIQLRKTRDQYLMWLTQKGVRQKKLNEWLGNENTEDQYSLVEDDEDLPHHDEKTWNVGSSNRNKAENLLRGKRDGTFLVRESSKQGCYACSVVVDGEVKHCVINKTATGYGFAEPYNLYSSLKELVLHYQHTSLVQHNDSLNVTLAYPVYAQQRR

In the case of `N#C/C(=C\C=C\c1ccc(-c2cc(Cl)ccc2Cl)o1)C(N)=S` [C98], the “phosphorylation levels of AKT, mTOR, p70S6K, and 4E-BP1” value in assay [1] was “downregulated”. Besides, the “suppression of mTOR activity” value in the assay on mTOR is given as “failed to suppress”. The AKT phosphorylation entry was “inhibited AKT phosphorylation in a time- and concentration-dependent manner” in assay [2]; “suppressed AKT phosphorylation” in assay [3]. For the same molecule, the values for the IC50 (in the assay with AKT; in assay [4]; in [5]) were 61.4 µM, 0.74 µM and 3.65 µM, respectively. Moreover, the “AKT phosphorylation in tumors” value in the assay on JJN3 xenograft (JJN3 tumors, both 40 and 80 mg/kg doses, immunoblotting) is “decreased”. Also, the “decrease of tumor growth” value in the assay with JJN3 xenograft (setting [6]) worked out at 48%. The tumor volume in the assay on JJN3 xenograft (setting [6]) was 1293.1 ± 289.7 mm^3; with JJN3 xenograft (setting [7]), 581.2 ± 73.2 mm^3. Besides, the “decreased tumor growth to %” value in the assay with JJN3 xenograft (setting [7]) stood at 76.5%. Further, in the assay with JJN3 xenograft (MM tumors excised from C98-treated mice, especially high dose group), the “cleavage of PARP in tumors” value was “cleavage of PARP was found”. Further, the “IGF-1R activation (phosphorylation)” value in the assay on IGF-1R is “had no effects on IGF-1R activation”.
